Laboratory results published in patent US20220119868A1, “PROFILING RNA-SMALL MOLECULE BINDING SITES WITH OLIGONUCLEOTIDES” (priority 2018, published 2022).

Legend:
Assay in all cases: In solution, fluorescence-based binding affinity assay
[1] = target: RNA motif 5′UCCUU3′/3′AUUA5′ (non-binder)
Experimental: (§1) Affinity of Selected RNA Motif-Small Molecule Interactions. The affinity of exemplar compounds that have inherent fluorescence was measured. […] . Binding affinities were confirmed using a label-free method, biolayer interferometry.
(§2) where n1 is the size of Population 1 (number of sequencing reads for a given RNA from RNA-seq analysis of the selected library), n2 is the size of Population 2 (number of sequencing reads for the same RNA from RNA-seq analysis of the starting library), p1 is the observed proportion of Population 1 (the number of reads for a given RNA from selected library/total number of reads), and p2 is the observed proportion for Population 2 (the number of reads for the same RNA in the starting library/total number of reads). Generation of Logos and DiffLogos: Zobs corresponding to the highest (enriched) 0.5% and lowest (discriminated against) 0.5% scores were analyzed to generate consensus sequences, or Logos. The resulting list of sequences were converted to position weight matrix (PWM) lists for each compound. “Enriched” and “discriminated” sequences were kept separate using JMP®, Version <13.2.1>. SAS Institute Inc., Cary, N.C., 1989-2007. The R package Difflogo,^16 which is part of Bioconductor, was utilized to create the sequence logos from PWM lists for each compound and visually compare the differences between them. Binding Affinity Measurements. Dissociation constants were determined using an in solution, fluorescence-based assay. […] Serial dilutions (1:2) of the small molecule were then completed in 1× Assay Buffer supplemented with 1 mM MgCl2. The solutions were incubated for 30 min at room temperature, transferred to a 96-well plate, and fluorescence intensity measured on a BioTek-FLx800 plate reader. The change in fluorescence intensity as a function of small molecule concentration was fit to a one site binding model per equation 3: […]
(§3) Effect of compounds on HCV replication. […] Cytotoxicity assays. […] Oligonucleotide profiling of target engagement in vitro. […] Primers can be found in Table 4. […] Inhibition of kinases. […] . Figure S7C).

[2] = target: RNA motif 5′UCCAU3′/3′AUCA (non-binder)
Experimental: as §1, §2, §3

[3] = target: RNA motif 5′GAG3′/3′C_C5′ (from RNA library C)
Experimental: as §1, §2, §3

[4] = target: RNA motif 5′AAC3′/3′U_G5′ (from RNA library C)
Experimental: as §1, §2, §3

[5] = target: RNA motif 5′GAU3′/3′C_A5′ (from RNA library C)
Experimental: as §1, §2, §3

[6] = target: RNA motif 5′UCUAU3′/3′ACCA5′ (from RNA library C)
Experimental: as §1, §2, §3

[7] = target: RNA motif 5′GCU3′/3′C_A5′ (from RNA library C)
Experimental: as §1, §2, §3

O=C(Nc1cccc(NC(=O)Nc2cc(C(=O)Nc3ccc(C4=NCCN4)cc3)ccc2C(=O)Nc2ccc(C3=NCCN3)cc2)c1)Nc1cc(C(=O)Nc2ccc(C3=NCCN3)cc2)ccc1C(=O)Nc1ccc(C2=NCCN2)cc1 [Compound 7]
Kd [1]: 2080 ± 300 nM | Kd [2]: 7200 ± 418 nM | Kd [3]: 410 ± 26 nM | Kd [4]: 420 ± 41 nM

O=C(Nc1ccc(C2=NCCN2)cc1)c1cc(C(=O)Nc2ccc(C3=NCCN3)cc2)cc(C(=O)Nc2ccc(C3=NCCN3)cc2)c1 [Compound 8]
Kd [5]: 600 ± 61 nM | Kd [6]: 5580 ± 440 nM | Kd [7]: 450 ± 47 nM
